The text below walks through data of publication PMC10138577, “Prenylated Flavonoids with Selective Toxicity against Human Cancers” (International Journal of Molecular Sciences, 2023).

Common to all, as to assay type: cell-based
The subject of assay [1] is MV-4-11 human myelomonocytic leukemia cells. The assay can be described thus: In vitro antiproliferative assay (MTT), MV-4-11. To be noted: for IC50: Homo sapiens, MV4-11, MV-4-11, 72 h exposure, MTT, mean ± SD; for Calculated selectivity index SIB: IC50 BALB/3T3/IC50 MV-4-11; for Calculated selectivity index SIA: IC50 HLMEC/IC50 MV-4-11. From the text:
(§1) The following established in vitro cell lines were applied: human breast adenocarcinoma (MCF-7 and SK-BR-3), human breast ductal carcinoma (T47D), human prostate adenocarcinoma (PC-3), human prostate carcinoma (Du145), human colorectal adenocarcinoma (HT-29 and LoVo), doxorubicin-resistant human colorectal adenocarcinoma (LoVo/Dx), human myelomonocytic leukemia (MV-4-11), human lung adenocarcinoma (A549), normal murine embryonic fibroblasts (BALB/3T3) and human lung microvascular endothelial (HLMEC). All the cell lines were obtained from the American Type Culture Collection (Rockville, MD, USA) except for LoVo and LoVo/DX, which were received from the Technical University of Gdańsk, Poland, courtesy of Prof. E. Borowski. All the cell lines were maintained in the Institute of Immunology and Experimental Therapy, Wroclaw, Poland. The cells were cultured in the following media: DMEM medium (BALB/3T3), Eagle medium (MCF-7, SK-BR-3, Du145), RPMI medium (HLMEC, MV-4-11) or RPMI 1640 + Opti-MEM (1:1) medium (A549, T47D, LoVo, LoVo/Dx, PC-3, HT-29). The DMEM medium was supplemented with 2 mM L-glutamine and 10% fetal bovine serum. The Eagle medium was supplemented with 4 mM L-glutamine, 10% fetal bovine serum, 1 mM sodium pyruvate for Du145 cells or 2 mM L-glutamine, 1% amino acids and 0.8 mg L^−1 of insulin for MCF-7 and SK-BR-3. The RPMI medium was supplemented with 2 mM L-glutamine, 1 mM sodium pyruvate and 10% fetal bovine serum. The RPMI 1640 + Opti-MEM (1:1) medium was supplemented with 2 mM L-glutamine, 5% fetal bovine serum (PC-3, A549) and 0.8 mg L^−1 insulin (T47D) or 1 mM sodium pyruvate (HT-29, LoVo, LoVoDx) and 0.1 ug/mL doxorubicin (LoVo/Dx). The media contained antibiotics: 100 µg mL^−1 streptomycin and 100 U mL^−1 penicillin. All the cell lines were incubated at 37 °C in a humid atmosphere saturated with 5% CO2.
The details of this technique were described by Antoszczak et al.. The proliferation inhibition of human myelomonocytic leukemia (MV-4-11) by the tested compounds was measured using the MTT assay. Thus, 20 µL of 3-(4,5-dimethylthiazol-2-yl)-2,5-diphenyl tetrazolium bromide solution was added to each well. Then, the plates were incubated for 4 h in a cell incubator to allow the cells to metabolize the yellow MTT to blue formazan. Next, 80 µL of lysing mixture (consisting of 67.5 g sodium dodecyl sulfate, 225 mL dimethylformamide and 275 mL distilled water) was added to each well. The plates were incubated for 24 h for the formazan crystals to be released from the cells and dissolved, and then the absorbance of each well was read on a 96-well microtiter plate reader (Multiskan FC photometer (Thermo Scientific)) at a 570 nm wavelength.
(§2) Twenty-four hours before incubation with the tested compounds, the cells were seeded in 96-well plates (Sarstedt, Nümbrecht, Germany) at a density of 10^4 cells per well (10^3 cells per well for HLMEC) in 100 µL of culture medium. The analysis of the antiproliferative activity of the compounds was performed using sulforhothamine B (SRB) (for all the adherent cells) or 3-(4,5-dimethylthiazol-2-yl)-2,5-diphenyl tetrazolium bromide (MTT) (for the leukemia cells—MV-4-11). The details of this technique have been previously described by Skehan et al. and Antoszak et al.. An assay was performed after 72 h of exposure at varying concentrations (from 0.1 to 100 µg mL^−1) of xanthohumol (1), aurone (2) and the reference drug cisplatin. Each compound at each concentration was tested in a single experiment, which was repeated at least 3 times. […] The results were calculated as the IC50 (μM) (half maximal inhibitory concentration), i.e., the concentration of the tested agent that inhibits the proliferation of the cancer cell population by half. The IC50 values and the mean values ± SD calculated for each experiment separately using GraphPad Prism software (GraphPad Software 9.1.0, San Diego, CA, USA) are presented in Table S1 in the Supplementary Materials.

Assay [2] concerns PC-3 human prostate adenocarcinoma cells. The assay can be described thus: In vitro antiproliferative assay (SRB), PC-3. To be noted: for IC50: Homo sapiens, PC-3, 72 h exposure, SRB, mean ± SD; for Calculated selectivity index SIB: IC50 BALB/3T3/IC50 PC-3; for Calculated selectivity index SIA: IC50 HLMEC/IC50 PC-3.
Source text: as §1
(§3) The details of this technique were described by Skehan et al.. After 72 h of incubation with the tested compounds, the cells were fixed in situ by gently adding cold 50% trichloroacetic acid—TCA (50 µL per well). The plates were incubated at 4 °C for 1 h and then washed five times with tap water and air-dried. Next, the cellular material fixed with TCA was stained by adding 50 µL of 0.4% sulforhodamine B dissolved in 1% acetic acid to each well and incubating the wells for 30 min at room temperature. The unbound dye was removed by washing the plates five times with 1% acetic acid, whereas the stain bound to the cells was extracted with 150 µL of 10 mM unbuffered Tris base for determination of the optical density at a 540 nm wavelength in a computer-interfaced, 96-well microtiter plate reader–Multiskan FC photometer (Thermo Scientific, Waltham, MA, USA). The background optical density was measured in the wells filled with culture medium, without the cells.
as §2, with “The IC50 values and the mean values ± SD calculated for each experiment separately using GraphPad Prism software (GraphPad Software 9.1.0, San Diego, CA, USA) are presented in Table S1 in the Supplementary Materials.” left out

Assay [3] deals with A549 human lung adenocarcinoma cells. Put plainly: In vitro antiproliferative assay (SRB), A549. To be noted: for IC50: Homo sapiens, A549, 72 h exposure, SRB, mean ± SD; for Calculated selectivity index SIB: IC50 BALB/3T3/IC50 A549; for Calculated selectivity index SIA: IC50 HLMEC/IC50 A549.
Source text: as §1, §3
as §2, with “The IC50 values and the mean values ± SD calculated for each experiment separately using GraphPad Prism software (GraphPad Software 9.1.0, San Diego, CA, USA) are presented in Table S1 in the Supplementary Materials.” left out

The subject of assay [4] is T47D human breast ductal carcinoma cells. Put plainly: In vitro antiproliferative assay (SRB), T47D. To be noted: for IC50: Homo sapiens, T47D, 72 h exposure, SRB, mean ± SD; for Calculated selectivity index SIB: IC50 BALB/3T3/IC50 T47D; for Calculated selectivity index SIA: IC50 HLMEC/IC50 T47D.
Source text: as §1, §3
as §2, with “The IC50 values and the mean values ± SD calculated for each experiment separately using GraphPad Prism software (GraphPad Software 9.1.0, San Diego, CA, USA) are presented in Table S1 in the Supplementary Materials.” left out

Assay [5] deals with LoVo/Dx doxorubicin-resistant human colorectal adenocarcinoma cells. The assay can be described thus: In vitro antiproliferative assay (SRB), LoVo/Dx. As to conditions: for IC50: Homo sapiens, LoVo/Dx, 72 h exposure, SRB, mean ± SD; for Calculated selectivity index SIB: IC50 BALB/3T3/IC50 LoVo/Dx; for Calculated selectivity index SIA: IC50 HLMEC/IC50 LoVo/Dx.
Source text: as §1, §3
as §2, with “The IC50 values and the mean values ± SD calculated for each experiment separately using GraphPad Prism software (GraphPad Software 9.1.0, San Diego, CA, USA) are presented in Table S1 in the Supplementary Materials.” left out

For `COc1cc(O)c(CC=C(C)C)c(O)c1C(=O)/C=C/c1ccc(O)cc1` [compound 1, 3′-[3″,3″-dimethylallyl]-2′,4′,4-trihydroxy-6′-methoxychalcone], the half-inhibitory concentration (IC50) (usually the concentration at which inhibition is half-maximal) in assay [1] amounted to 8.07 ± 0.52 µM; in assay [2] it was 9.15 ± 0.88 µM; in assay [3], 10 ± 0.71 µM; in assay [4], 8.27 ± 1.23 µM; in assay [5], 7.28 ± 1.22 µM. The “Calculated selectivity index SIB” value is on record as 2.43 in assay [1]; 2.14 in assay [2]; 1.96 in assay [3]; 2.37 in assay [4]; 2.70 in assay [5]. In addition, the “Calculated selectivity index SIA” value in assay [1] is listed as 4.50; in assay [2], 3.97; in assay [3], 3.62; in assay [4], 4.39; in assay [5] it was 4.99.

As to `COc1cc(O)c(CC=C(C)C)c2c1C(=O)/C(=C/c1ccc(O)cc1)O2` [compound 2, (Z)-6,4′-dihydroxy-4-methoxy-7-prenylaurone], the concentration for half-maximal inhibition (IC50) is 7.45 ± 0.87 µM in assay [1]; 19.1 ± 9.27 µM in assay [2]; 16.6 ± 3.29 µM in assay [3]; 8.09 ± 2.21 µM in assay [4]; 7.83 ± 2.82 µM in assay [5]. Moreover, the “Calculated selectivity index SIB” value was 5.97 in assay [1]; 2.33 in assay [2]; 2.68 in assay [3]; 5.50 in assay [4]; 5.68 in assay [5]; 5.97 in assay [5] (listed as aurone (2)). Further, the “Calculated selectivity index SIA” value was 7.09 in assay [1]; 2.77 in assay [2]; 3.18 in assay [3]; 6.53 in assay [4]; 6.75 in assay [5].
